Assay results from patent US7838263B2, “Methods of identifying a plant with an Nsf1 locus” (E. I. du Pont de Nemours and Company, priority 2006, dated 2010).

Key:
[1] = test system: transgenic soybean plants comprising the maize Nsf1 gene; assay: T1 transgenic soybean plant herbicide efficacy testing; type: in vivo, Glycine max; conditions: sprayed at V3 stage; for tolerance of one of the two T1 events compared to the controls: first event, 8 DAT and 15 DAT; for tolerance of the second T1 event compared to the controls: 15 DAT
Protocol: Two events from the T0 generation were advanced to the T1 generation for additional herbicide efficacy testing of the Nsf1 gene. Replicates of two controls, as well as T1 plants, were grown in greenhouse experiments and sprayed with mesotrione at one of two rates (200 g/ha or 50 g/ha), nicosulfuron (70 g/ha), or rimsulfuron (35 g/ha) at the V3 growth stage. All herbicide treatments were applied with 1% w/w modified seed oil adjuvant in a spray volume of 374 L/ha. Plants were rated for herbicide response at eight days after application using a 1 to 9 score as used in the T0 testing.
An expanded herbicide efficacy test was developed in a second T1 plant experiment for the same two events advanced from the T0 generation. […] All herbicide treatments were applied in a spray volume of 287 L/ha. Isoxaflutole (140 g/ha), topramezone (140 g/ha), and sulcotrione (140 g/ha) were applied with 1% w/w modified seed oil adjuvant. Diuron treatments (560 g/ha) were applied with 1% w/w petroleum crop oil adjuvant. Acifluorfen (4480 g/ha), sulfentrazone (140 g/ha), flumioxazine (140 g/ha), and dicamba (280 g/ha) were applied with 0.25% w/w nonionic surfactant. Rimsulfuron (35 g/ha) treatments were applied with 0.5% w/w basic blend adjuvant. At eight and fifteen days after treatment, plants were rated visually for crop injury using a 0 to 100 scale (0=no injury to 100=dead plant).

corn lines = assay: Testing of maize plants for sensitivity to nicosulfuron; type: in vivo, Zea mays; conditions: misted with 2.3 mM nicosulfuron, 0.5% v/v Kinetic surfactant, approximately V3 stage
Protocol: In order to determine if the Nsf1 allele was consistent across maize lines, three corn lines with unknown sensitivity levels to nicosulfuron were tested to determine their reaction and then evaluate their sequences. Plants were misted with a 2.3 mM nicosulfuron, 0.5% v/v Kinetic surfactant solution at approximately the V3 stage. Both known resistant and sensitive lines were also grown and sprayed as controls. […] Three corn lines with unknown sensitivity levels to nicosulfuron were tested to determine their reaction. Plants were misted with a 2.3 mM nicosulfuron, 0.5% v/v Kinetic surfactant solution at approximately the V3 stage. Both known resistant and sensitive lines were also grown and sprayed as controls.

[2] = test system: T0 soybean plants transformed with the Nsf1 gene; assay: T0 transgenic soybean plant herbicide response, visual score 1 to 9; type: in vivo, Glycine max
From the text: Two different constructs comprising the Nsf1 gene were created to examine herbicide efficacy of the gene when transformed into soybean. The Nsf1 constructs were co-bombarded with a 35S:HYG insert to permit event selection using hygromycin. At the V2 to V6 growth stage, a total of 127 T0 plants were sprayed with 35 g/ha rimsulfuron. All rimsulfuron treatments were applied with 0.2% w/w nonionic surfactant in a spray volume of 287 L/ha. In addition to the T0 plants, replications of three different controls were included—two positive and one negative. Individual plants were evaluated for herbicide response at ten days after treatment, and assigned a visual response score from 1 to 9 (1=dead plant to 9=no effect observed). Based upon high tolerance scores to the initial rimsulfuron spray, five T0 events were sprayed with an additional 35 g/ha rimsulfuron. Plants were rated for visual tolerance using a 1 to 9 score at ten days after the second application.

Compound	tolerance of one of the two T1 events compared to the controls [1]	tolerance of the second T1 event compared to the controls [1]	other results
O=C(O)c1cc(Oc2ccc(C(F)(F)F)cc2Cl)ccc1[N+](=O)[O-] [acifluorfen]	significantly better tolerance	significantly better tolerance	
COc1c(Cl)ccc(Cl)c1C(=O)O [dicamba]	significantly better tolerance	significantly better tolerance	
CN(C)C(=O)Nc1ccc(Cl)c(Cl)c1 [diuron]	significantly better tolerance		
C#CCN1C(=O)COc2cc(F)c(N3C(=O)C4=C(CCCC4)C3=O)cc21 [flumioxazine]	significantly better tolerance		
CS(=O)(=O)c1cc(C(F)(F)F)ccc1C(=O)c1cnoc1C1CC1 [isoxaflutole]	significantly better tolerance	significantly better tolerance	
CS(=O)(=O)c1ccc(C(=O)C2C(=O)CCCC2=O)c([N+](=O)[O-])c1 [mesotrione]	significantly better tolerance	significantly better tolerance	
COc1cc(OC)nc(NC(=O)NS(=O)(=O)c2ncccc2C(=O)N(C)C)n1 [nicosulfuron]			reaction of line A188 to nicosulfuron (corn lines; line A188): sensitive; reaction of line Black Mexican Sweet (BMS) to nicosulfuron (corn lines; line BMS): resistant; reaction of line Q66 to nicosulfuron (corn lines; line Q66): resistant
CCS(=O)(=O)c1cccnc1S(=O)(=O)NC(=O)Nc1nc(OC)cc(OC)n1 [rimsulfuron]	significantly better tolerance	significantly better tolerance	T0 events with improved level of tolerance after an additional application ([2]; after an additional application of 35 g/ha rimsulfuron): Three of 51; T0 events with improved tolerance compared to the controls ([2]; ten days after treatment with 35 g/ha rimsulfuron, V2 to V6 stage): 4 of 51
CS(=O)(=O)c1ccc(C(=O)C2C(=O)CCCC2=O)c(Cl)c1 [sulcotrione]	significantly better tolerance	significantly better tolerance	
Cc1nn(-c2cc(NS(C)(=O)=O)c(Cl)cc2Cl)c(=O)n1C(F)F [sulfentrazone]	significantly better tolerance	significantly better tolerance	
Cc1c(C(=O)c2cnn(C)c2O)ccc(S(C)(=O)=O)c1C1=NOCC1 [topramezone]	significantly better tolerance	significantly better tolerance	
